Experimental data from patent US20210085807A1, “METAL-BINDING PEPTIDE AND USE THEREOF” (The University of Tokyo, priority 2018, published 2021).

Test: Adsorption on stent in plasma, fluorescence microscopy
Assay type: binding
Conditions: stent immersed in human plasma 37° C., 30 minutes, then 0.5 mM peptide or PEG-peptide conjugate solution 37° C.
Method: Next, in order to analyze the binding ability of the peptide of the present invention to a stent existing in plasma, whether or not the peptide of the present invention binds to a stent that has been allowed to come into contact with plasma was examined.
That is, a stent was immersed in human plasma (37° C., 30 minutes), and was then removed from the plasma. The stent was then immersed in each peptide solution (0.5 mM) and a PEG-peptide conjugate solution (0.5 mM) (37° C., 30 minutes). Thereafter, the stent was sufficiently rinsed with PBS, and was then observed under a fluorescence microscope.
FIG. 15 and FIG. 16 show the fluorescence microscopic images of the stents, and the observed fluorescence intensities are summarized in FIG. 17. The method of digitizing the fluorescence intensity is as described above.

LTPHKHHKHLHA [YT07]
binding to the surface of the stent after contact with human plasma: does not bind to a stent
